Data on 41 compounds can be found in patent US20240279221A1, “HETEROCYCLIC COMPOUNDS AND METHODS OF USE” (Schrödinger, Inc., priority 2021, published 2024).

Chain of SOS1:KRAS (G12C) interaction (Q07889 564-1049, stated change not applied): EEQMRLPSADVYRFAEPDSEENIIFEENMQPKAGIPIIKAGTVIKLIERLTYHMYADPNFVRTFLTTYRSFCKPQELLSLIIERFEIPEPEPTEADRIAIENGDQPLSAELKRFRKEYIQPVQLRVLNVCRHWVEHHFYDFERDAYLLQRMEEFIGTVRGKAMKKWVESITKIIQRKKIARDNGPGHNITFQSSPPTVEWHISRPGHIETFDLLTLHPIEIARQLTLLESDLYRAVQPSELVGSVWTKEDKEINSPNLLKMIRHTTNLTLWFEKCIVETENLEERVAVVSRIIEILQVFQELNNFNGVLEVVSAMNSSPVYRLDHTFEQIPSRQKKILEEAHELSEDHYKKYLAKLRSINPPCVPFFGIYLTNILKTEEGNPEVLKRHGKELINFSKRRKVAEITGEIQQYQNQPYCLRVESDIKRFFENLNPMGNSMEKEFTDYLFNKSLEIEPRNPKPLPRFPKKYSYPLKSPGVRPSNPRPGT

The assay concerns the target SOS1:KRAS (G12C) interaction (Homo sapiens (Human), UniProt Q07889). As to the kind of experiment: SOS1-KRas(G12C) FRET Assay. Type of assay: binding. To be noted: 0.5 nM His10-SOS1 (res. 564-1049), 2.5 nM GST-KRAS (res. 1-169, G12C); read-out: SOS-KRas(G12C) FRET IC50. The protocol: Inhibition of the SOS1:KRAS interaction was measured using purified GST-tagged KRAS (res. 1-169, G12C, purified based on Hillig, et al., Proc Natl Acad Sci USA (2019); 116(7):2551-2560) and recombinant His10-SOS1 (res. 564-1049; purified based on Hillig, et al.). The final assay was performed at 20 uL with 0.5 nM SOS1 protein and 2.5 nM KRAS protein in a buffer of PBS, 0.1% BSA, 5 mM MgCl2, 0.0025% Igepal, 100 mM KF, 5 mM DTT in a white 384 square well OptiPlate (PerkinElmer, Cat. 6007290). A 2× KRAS working solution was prepared in an assay buffer containing 5 nM GST-KRAS G12C and 2 nM anti-GST-Eu(K) (Cisbio, Cat. 61GSTKLA) and pre-incubated for 15 minutes at 25° C. Compounds were serially diluted in 100% DMSO from 2 mM (positive control, compound I-13, PCT Publ. No. WO2018/115380) or 20 mM and then diluted 1:20 in assay buffer before incubation with a solution of SOS1 protein mixed 1:5 with anti-6His-XL665 FRET donor (Cisbio, Cat. 61HISXL) for 15 minutes at 25° C. before addition of 2× KRAS working solution. The final DMSO concentration is 0.5%. Plates were incubated at RT for 2 hrs before the FRET signal was measured using Envision at emission 665 nm and 615 nm. FRET signal was converted to percentage of protein-protein interaction using the following equation:
[formula] • C: signal with compound treatment • P: signal for positive control (DMSO) • N: signal for negative control (no SOS1 added) • IC50 and Hill coefficients were obtained using Graph Pad Prism (Graph Pad software, Inc, USA) with non-linear regression analysis.
Regarding `Cc1c([C@@H](C)Nc2nn(C)c(=O)c3cc(=O)n([C@H]4C[C@@H]4c4cncc(F)c4)cc23)cccc1C(F)(F)F` (single isomer, unassigned) [Example 91], the IC50 worked out at 97.4 nM.

For `Cc1c([C@@H](C)Nc2nn(C)c(=O)c3cc(=O)n([C@@H]4C[C@H]4c4cncc(F)c4)cc23)cccc1C(F)(F)F` (single isomer, unassigned) [Example 92], the IC50 came out at 567 nM.

Take `C[C@@H](Nc1nn(C)c(=O)c2cc(=O)n([C@H]3C[C@@H]3c3cncc(F)c3)cc12)c1cccc(C(F)F)c1F` (single isomer, unassigned) [Example 93]: the IC50 is 60.8 nM.

Consider `C[C@@H](Nc1nn(C)c(=O)c2cc(=O)n([C@@H]3C[C@H]3c3cncc(F)c3)cc12)c1cccc(C(F)F)c1F` (single isomer, unassigned) [Example 94], for which the IC50 amounted to 378 nM.

Take `C[C@@H](Nc1nn(C)c(=O)c2cc(=O)n([C@]3(C(F)(F)F)CCNC3)cc12)c1cccc(C(F)F)c1F` (single isomer, unassigned) [Example 95]: the IC50 is 394 nM.

As for `C[C@@H](Nc1nn(C)c(=O)c2cc(=O)n([C@@]3(C(F)(F)F)CCNC3)cc12)c1cccc(C(F)F)c1F` (single isomer, unassigned) [Example 96], the IC50 turned out to be 29.2 nM.

`C[C@@H](Nc1nn(C)c(=O)c2cc(=O)n([C@@]3(C(F)(F)F)CCN(C)C3)cc12)c1cccc(C(F)F)c1F` (single isomer, unassigned) [Example 97]: the IC50 came to 65.6 nM.

Consider `C[C@@H](Nc1nn(C)c(=O)c2cc(=O)n([C@]3(C(F)(F)F)CCN(C)C3)cc12)c1cccc(C(F)F)c1F` (single isomer, unassigned) [Example 98], for which the IC50 amounted to 989 nM.

For the compound `CC(=O)N1CC[C@@](n2cc3c(N[C@H](C)c4cccc(C(F)F)c4F)nn(C)c(=O)c3cc2=O)(C(F)(F)F)C1` (single isomer, unassigned) [Example 99], the IC50 was 9.03 nM.

In the case of `CC(=O)N1CC[C@](n2cc3c(N[C@H](C)c4cccc(C(F)F)c4F)nn(C)c(=O)c3cc2=O)(C(F)(F)F)C1` (single isomer, unassigned) [Example 100], the IC50 worked out at 1920 nM.

Take `C[C@@H](Nc1nn(C)c(=O)c2cc(=O)n([C@@]3(C(F)F)CCOC3)cc12)c1cccc(C(F)F)c1F` (single isomer, unassigned) [Example 119]: the IC50 came to 411 nM.

Regarding `C[C@@H](Nc1nn(C)c(=O)c2cc(=O)n([C@]3(C(F)F)CCOC3)cc12)c1cccc(C(F)F)c1F` (single isomer, unassigned) [Example 120], the IC50 was found to be 19.9 nM.

Regarding `C[C@@H](Nc1nn(C)c(=O)c2cc(=O)n([C@H]3CCC(F)(F)C3)cc12)c1cccc(C(F)F)c1F` (single isomer, unassigned) [Example 121], the half-maximal inhibitory concentration (IC50) is 125 nM.

`C[C@@H](Nc1nn(C)c(=O)c2cc(=O)n([C@@H]3CCC(F)(F)C3)cc12)c1cccc(C(F)F)c1F` (single isomer, unassigned) [Example 122]: the IC50 was determined as 315 nM.

As for `C[C@@H](Nc1nn(C)c(=O)c2cc(=O)n([C@@H]3CC34CC4)cc12)c1cccc(C(F)F)c1F` (single isomer, unassigned) [Example 128], the IC50 was 287 nM.

Turning to `C[C@@H](Nc1nn(C)c(=O)c2cc(=O)n([C@H]3CC34CC4)cc12)c1cccc(C(F)F)c1F` (single isomer, unassigned) [Example 129], the IC50 came to 112 nM.

Regarding `C[C@@H](Nc1nn(C)c(=O)c2cc(=O)n([C@H]3CC34CCC(F)(F)CC4)cc12)c1cccc(C(F)F)c1F` (single isomer, unassigned) [Example 130], the 50% inhibitory concentration (IC50) was determined as 82.6 nM.

On to `C[C@@H](Nc1nn(C)c(=O)c2cc(=O)n([C@@H]3CC34CCC(F)(F)CC4)cc12)c1cccc(C(F)F)c1F` (single isomer, unassigned) [Example 131], for which the IC50 worked out at 277 nM.

`C[C@@H](Nc1nn(C)c(=O)c2cc(=O)n([C@@H]3CC3(C)C)cc12)c1cccc(C(F)F)c1F` (single isomer, unassigned) [Example 132]: the IC50 came to 152 nM.

Turning to `C[C@@H](Nc1nn(C)c(=O)c2cc(=O)n([C@H]3CC3(C)C)cc12)c1cccc(C(F)F)c1F` (single isomer, unassigned) [Example 133], the IC50 amounted to 245 nM.

With `C[C@@H](Nc1nn(C)c(=O)c2cc(=O)n([C@H]3C[C@@H]3C3CC3)cc12)c1cccc(C(F)F)c1F` (single isomer, unassigned) [Example 135], the IC50 was determined as 70.5 nM.

Consider `C[C@@H](Nc1nn(C)c(=O)c2cc(=O)n([C@@H]3C[C@H]3C3CC3)cc12)c1cccc(C(F)F)c1F` (single isomer, unassigned) [Example 136], for which the IC50 came out at 185 nM.

As for `C[C@@H](Nc1nn(C)c(=O)c2cc(=O)n([C@H]3C[C@@H]3C(F)(F)F)cc12)c1cccc(C(F)F)c1F` (single isomer, unassigned) [Example 137], the IC50 amounted to 91.2 nM.

Regarding `C[C@@H](Nc1nn(C)c(=O)c2cc(=O)n([C@@H]3C[C@H]3C(F)(F)F)cc12)c1cccc(C(F)F)c1F` (single isomer, unassigned) [Example 138], the concentration for half-maximal inhibition (IC50) came to 434 nM.

With `CC(=O)N1C[C@H]2C[C@@]2(n2cc3c(N[C@H](C)c4cccc(C(F)F)c4F)nn(C)c(=O)c3cc2=O)C1` (single isomer, unassigned) [Example 139], the IC50 was determined as 120 nM.

Turning to `CC(=O)N1C[C@@H]2C[C@]2(n2cc3c(N[C@H](C)c4cccc(C(F)F)c4F)nn(C)c(=O)c3cc2=O)C1` (single isomer, unassigned) [Example 140], the IC50 turned out to be 31.3 nM.

Take `C[C@@H](Nc1nn(C)c(=O)c2cc(=O)n([C@@]34C[C@@H]3CN(C(=O)C3CC3)C4)cc12)c1cccc(C(F)F)c1F` (single isomer, unassigned) [Example 141]: the IC50 was determined as 25 nM.

For the compound `C[C@@H](Nc1nn(C)c(=O)c2cc(=O)n([C@]34C[C@H]3CN(C(=O)C3CC3)C4)cc12)c1cccc(C(F)F)c1F` (single isomer, unassigned) [Example 142], the IC50 stood at 77.2 nM.

As for `CC(=O)N1CC[C@@](C)(n2cc3c(N[C@H](C)c4cccc(C(F)F)c4F)nn(C)c(=O)c3cc2=O)C1` (single isomer, unassigned) [Example 143], the IC50 turned out to be 7.8 nM.

As to `CC(=O)N1CC[C@](C)(n2cc3c(N[C@H](C)c4cccc(C(F)F)c4F)nn(C)c(=O)c3cc2=O)C1` (single isomer, unassigned) [Example 144], the IC50 is 209 nM.

Turning to `COc1c(=O)n([C@@]2(C(F)(F)F)CCOC2)cc2c(N[C@H](C)c3cccc(C(F)F)c3F)nn(C)c(=O)c12` (single isomer, unassigned) [Example 157], the IC50 is 24.2 nM.

For `COc1c(=O)n([C@]2(C(F)(F)F)CCOC2)cc2c(N[C@H](C)c3cccc(C(F)F)c3F)nn(C)c(=O)c12` (single isomer, unassigned) [Example 158], the IC50 turned out to be 382 nM.

In the case of `C[C@@H](Nc1nn(C)c(=O)c2cc(=O)n([C@@]3(C(F)(F)F)CCOC3)cc12)c1cccc(C(F)F)c1F` (single isomer, unassigned) [Example 164], the IC50 was determined as 19.3 nM.

Consider `C[C@@H](Nc1nn(C)c(=O)c2cc(=O)n([C@]3(C(F)(F)F)CCOC3)cc12)c1cccc(C(F)F)c1F` (single isomer, unassigned) [Example 165], for which the IC50 is 424 nM.

Take `C[C@@H](Nc1nn(C)c(=O)c2cc(=O)n([C@@]3(C(F)(F)F)CCOC3)cc12)c1cccc2c(F)coc12` (single isomer, unassigned) [Example 166]: the IC50 is 34.8 nM.

As to `C[C@@H](Nc1nn(C)c(=O)c2cc(=O)n([C@]3(C(F)(F)F)CCOC3)cc12)c1cccc2c(F)coc12` (single isomer, unassigned) [Example 167], the IC50 came to 607 nM.

Turning to `C[C@@H](Nc1nn(C)c(=O)c2cc(=O)n([C@@]3(C(F)(F)F)CCOC3)cc12)c1cccc2c1OCC2(F)F` (single isomer, unassigned) [Example 168], the IC50 turned out to be 13.5 nM.

On to `C[C@@H](Nc1nn(C)c(=O)c2cc(=O)n([C@]3(C(F)(F)F)CCOC3)cc12)c1cccc2c1OCC2(F)F` (single isomer, unassigned) [Example 169], for which the IC50 came out at 262 nM.

With `CC(=O)N1CC[C@@](n2cc3c(N[C@H](C)c4cccc5c4OCC5(F)F)nn(C)c(=O)c3cc2=O)(C(F)(F)F)C1` (single isomer, unassigned) [Example 170], the IC50 came out at 6.5 nM.

`CC(=O)N1CC[C@](n2cc3c(N[C@H](C)c4cccc5c4OCC5(F)F)nn(C)c(=O)c3cc2=O)(C(F)(F)F)C1` (single isomer, unassigned) [Example 171]: the IC50 was 1740 nM.

In the case of `CC(=O)N1CC[C@@](n2cc3c(N[C@H](C)c4cccc5c(F)coc45)nn(C)c(=O)c3cc2=O)(C(F)(F)F)C1` (single isomer, unassigned) [Example 172], the IC50 was determined as 13.8 nM.

By IC50 is commonly meant the concentration that gives 50% inhibition.
